Assay results taken from patent publication US8951982B2, “Methods and compositions for the treatment of eye disorders with increased intraocular pressure” (Sylentis S.A.U., priority 2004, dated 2015).
d = 2'-deoxy (DNA)

Key:
CA2 = assay: siRNA transfection of cells, real time PCR of target gene expression; format: cell-based; conditions: 100 nM siRNA, mean ± SD, normalized to beta-actin
Description: (§1) Cells (either NPE, OMDC, or HEK293 cells) were incubated with various siRNA molecules and assayed for expression of the native mRNA corresponding to the siRNA molecule. One day prior to transfection, 2−4×10^5 cells were seeded into each well of a 6 well plate in 3 ml of growth medium (DMEM, 10% serum, antibiotics and glutamine) and incubated under normal growth conditions (37° C. and 5% CO2). Lipofectamine 2000 Reagent (Invitrogen Corporation, Carlsbad, Calif.) was used to transfect the cells with the siRNA molecules. The protocol supplied by the manufacturer was followed. Briefly, siRNA molecules were added to cells that were 30%-50% confluent to a final concentration of 100 nM. Prior to addition to the cells, the siRNA molecule was diluted in 250 μl DMEM and incubated at room temperature for 5 minutes. The siRNA was then mixed with 6 μl of Lipofectamine 2000 Reagent that also had been diluted in 250 μl DMEM and the mixture was incubated at room temperature for 20 minutes. The siRNA/Lipofectamine mixture was added to the cells drop-wise with 2 ml of fresh growth medium low in antibiotics. After swirling the plates to ensure uniform distribution of the transfection complexes, the cells were incubated under normal growth conditions for 24 hours. After incubation with either of the transfection complexes, the medium was removed and replaced with 3 ml of fresh complete growth medium. mRNA was collected from cells at 24, 48 and 72 hours post-transfection.
(§2) After transfection and incubation with a siRNA molecule, total RNA fractions were extracted from cells using protocols well known in the art. The effect of siRNAs on target gene expression was analyzed by real time PCR and semi-quantitative PCR according to standard protocols. Approximately 250 ng of total RNA was used for reverse transcription followed by PCR amplification with specific primers for the target gene in a reaction mixture containing SYBR Green I Dye (Applied Biosystems, Foster City, Calif.). Basic PCR conditions comprised an initial step of […], followed by 40 cycles of 5 s at 95° C., 10 s at 62° C. and 15 s at 72° C. Quantification of beta-actin mRNA was used as a control for data normalization.
(§3) The values represent the mean of the percentage of siRNA interference of each gene expression once normalized with the control cells and their standard deviations.

PTGS1 = assay: as above; format: cell-based; conditions: 100 nM siRNA, mean ± SD
Description: as §1, §2, §3

[1] = tested on: Normotensive New Zealand White rabbits; assay: In vivo rabbit model of IOP (contact tonometer); conditions: figure legends (FIGS. 5-8), 256 μg dose of siRNA per administration
Description: Normotensive New Zealand White rabbits (males, 2-3 kg) were used in the in vivo assays. The animals were kept in individual cages with free access to food and water. Animals were submitted to artificial 12 hours light/darkness cycles to avoid uncontrolled circadian oscillations of IOP and all experiments were performed at the same time of day to control for any fluctuations in IOP due to circadian oscillations. Animal handling and treatment were carried out in accordance with the European Communities Council Directive (86/609/EEC) and the statement of the Association for Research in Vision and Ophthalmology on the Use of Animals in Ophthalmic and Vision Research. Each animal was used for only one experiment.
IOP measurements were done using a contact tonometer (TonoPen XL, Mentor, Norwell, Mass.) due to past success of measuring intraocular pressures within the range of 3 to 30 mm Hg in rabbits (Abrams et al., 1996, Invest Ophthalmol Vis Sci. 37:940-4). Measurements were performed by delicately applying the tonometer's sensor to the corneal surface of the animal. All measurements fell within the 3 to 30 mm Hg interval with the mean baseline value of intraocular pressure being 17.0±0.39 mm Hg for untreated animals (n=100). In order to avoid distress to the animal, rabbits were topically anesthetized (10 μl of oxibuprocaine/tetracaine, 0.4%/1%, in a saline solution (1/4 v:v)) prior to IOP measurement.
Commercially available drugs were typically administered to the animals by instilling a small volume (typically 40 μl) on the corneal surface. Contralateral eyes were treated with the vehicle alone and were used as controls in each experiment.
siRNA molecules or commercially available drugs were typically administered to the animals as follows. Doses of siRNA in saline solution (0.9% w/v) to a final volume of 40 μl were applied to the corneal surface of one eye each day during four consecutive days. The opposite eye was taken as a control and 40 μl of sterile saline (0.9% w/v) was instilled on it at the same time points. Commercially available drugs were typically administered to the animals by instilling a small volume (typically 40 μl) on the corneal surface. Contralateral eyes were treated with the vehicle alone and were used as controls in each experiment. The IOP was measured before each application and at 2 h, 4 h and 6 h following the instillation for 10 days.
The data are summarized in Table 2 where values represent the mean of the normalized maximum percentage of IOP reduction after siRNA treatment and their standard deviations. The decrease in IOP was statistically significant for all the treated targets.

Substance | % of gene transcript level in control cells (CA2; 24 h post-transfection) | % of gene transcript level in control cells (CA2; 48 h post-transfection) | % of gene transcript level in control cells (PTGS1; 24 h post-transfection) | % of gene transcript level in control cells (PTGS1; 48 h post-transfection) | decrease of IOP over a saline control [1]
SEQ ID NO: 66: siRNA targeting CA2 (CUUCACUUGGUUCACUGGA; 3' dTdT, sugars by position and backbone not given here; listed as Homo sapiens) | 35.30 ± 9.73% | 51.14 ± 16.49% | – | – | –
SEQ ID NO: 369: siRNA targeting PTGS1 (CAUUGUCAAGACGGCCACA; 3' dTdT, sugars by position and backbone not given here; listed as Homo sapiens) | – | – | 34.98 ± 14.33% | 26.30 ± 10.91% | –
SEQ ID NO: 54: siRNA targeting CA2 (CUUCCCUGAGGAUCCUCAA; 3' dTdT, sugars by position and backbone not given here; listed as Homo sapiens) | 37.97 ± 9.78% | 61.45 ± 9.62% | – | – | –
SEQ ID NO: 73: siRNA targeting human carbonic anhydrase II (CA2), 2 thymidine 3' overhang (GGUUGGCAGCGCUAAACCG; 3' dTdT, sugars by position and backbone not given here; listed as Homo sapiens) | 76.25 ± 12.60% | 84.57 ± 14.70% | – | – | 25%
SEQ ID NO: 353: siRNA targeting PTGS1 (prostaglandin endoperoxide synthase 1) (CCAUCUCUACCACUGGCAC; 3' dTdT, sugars by position and backbone not given here; listed as Homo sapiens) | – | – | 42.25 ± 13.76% | 42.68 ± 17.00% | –
